In patent US6716833B2, “Acetylenic α-amino acid-based sulfonamide hydroxamic acid tace inhibitors” (priority 1999, dated 2004) one finds melting point and IC50 data, which are given here for 24 compounds.

Data set [1] addresses MMP-13 (Homo sapiens, UniProt P45452). The experiment in a line: MMP-13 inhibition (thiopeptide or fluorescent peptide substrate). Type of data set: biochemical. As to conditions: read-out: MMP-13 IC50.
Data set [2] concerns the target TNF-α converting enzyme (TACE) (Homo sapiens, UniProt P78536). The experiment in a line: TACE inhibition (fluorescent peptidyl substrate). It is filed as biochemical.
Data set [3] concerns the target MMP-9 (Homo sapiens, UniProt P14780). As to the kind of experiment: MMP-9 inhibition (thiopeptide or fluorescent peptide substrate). It is filed as biochemical. As to conditions: read-out: MMP-9 IC50.
Data set [4] concerns the target T1, MMP-1 (Homo sapiens, UniProt P03956).
T1 sequence (P03956 100-469): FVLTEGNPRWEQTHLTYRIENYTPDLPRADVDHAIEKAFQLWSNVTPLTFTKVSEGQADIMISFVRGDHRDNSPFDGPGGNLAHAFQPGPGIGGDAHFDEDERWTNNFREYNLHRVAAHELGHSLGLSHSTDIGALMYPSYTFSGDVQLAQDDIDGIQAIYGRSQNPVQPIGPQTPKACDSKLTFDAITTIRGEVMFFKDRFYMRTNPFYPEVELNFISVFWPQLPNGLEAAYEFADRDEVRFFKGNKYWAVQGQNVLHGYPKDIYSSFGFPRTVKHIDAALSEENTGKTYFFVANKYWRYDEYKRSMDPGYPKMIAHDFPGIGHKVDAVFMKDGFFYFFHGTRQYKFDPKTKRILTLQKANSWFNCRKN
As to the kind of experiment: MMP-1 inhibition (thiopeptide or fluorescent peptide substrate). Type of data set: biochemical. Conditions: read-out: MMP-1 IC50.

Structures can show the parent of a compound that is named as a salt. Where two headings read alike, the source gives them in different places.

As a reminder, the melting point is the temperature, or range, at which the solid turns liquid. For orientation: IC50 means the concentration that gives 50% inhibition.

MMP-9, sequence (P14780 94-707): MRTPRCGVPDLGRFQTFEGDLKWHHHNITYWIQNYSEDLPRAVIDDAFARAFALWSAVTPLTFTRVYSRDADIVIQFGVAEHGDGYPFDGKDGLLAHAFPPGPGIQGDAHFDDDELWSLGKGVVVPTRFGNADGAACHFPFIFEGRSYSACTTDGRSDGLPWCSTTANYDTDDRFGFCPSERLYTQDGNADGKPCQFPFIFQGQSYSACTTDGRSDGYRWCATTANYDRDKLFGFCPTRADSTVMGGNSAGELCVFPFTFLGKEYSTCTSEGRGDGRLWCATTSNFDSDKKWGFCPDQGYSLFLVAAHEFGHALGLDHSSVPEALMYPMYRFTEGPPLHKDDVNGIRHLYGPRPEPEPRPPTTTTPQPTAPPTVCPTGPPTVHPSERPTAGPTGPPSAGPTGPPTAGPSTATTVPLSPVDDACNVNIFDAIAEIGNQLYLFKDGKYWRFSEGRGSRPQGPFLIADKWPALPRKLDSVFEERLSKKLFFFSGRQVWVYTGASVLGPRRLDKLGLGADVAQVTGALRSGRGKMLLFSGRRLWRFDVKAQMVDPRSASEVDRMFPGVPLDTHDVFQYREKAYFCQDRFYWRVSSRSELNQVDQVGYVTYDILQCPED
TNF-α converting enzyme (TACE), sequence (P78536 215-824, species assumed): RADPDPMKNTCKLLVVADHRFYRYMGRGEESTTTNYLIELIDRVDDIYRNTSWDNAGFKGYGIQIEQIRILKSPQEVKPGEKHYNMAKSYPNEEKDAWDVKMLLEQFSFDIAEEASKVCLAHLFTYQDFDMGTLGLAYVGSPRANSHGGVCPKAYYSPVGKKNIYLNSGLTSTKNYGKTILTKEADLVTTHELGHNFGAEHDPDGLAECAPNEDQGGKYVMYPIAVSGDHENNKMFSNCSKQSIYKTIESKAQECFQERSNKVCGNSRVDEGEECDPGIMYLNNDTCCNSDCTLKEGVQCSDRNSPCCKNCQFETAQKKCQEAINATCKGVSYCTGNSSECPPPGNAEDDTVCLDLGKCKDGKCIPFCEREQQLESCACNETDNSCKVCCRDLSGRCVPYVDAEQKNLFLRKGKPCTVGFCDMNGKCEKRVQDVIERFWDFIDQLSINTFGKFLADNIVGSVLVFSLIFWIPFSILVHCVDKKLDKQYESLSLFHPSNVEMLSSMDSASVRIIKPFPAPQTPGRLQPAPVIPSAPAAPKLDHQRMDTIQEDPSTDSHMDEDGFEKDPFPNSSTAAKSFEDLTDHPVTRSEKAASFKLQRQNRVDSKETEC

`CC#CCOc1ccc(S(=O)(=O)NC(C(=O)NO)c2ccc(OCCN3CCCC3)cc2)cc1` (stereo not shown) (as salt: hydrochloride) [Example 205, 2-({[4-(2-Butynyloxy)phenyl]sulfonyl}amino)-N-hydroxy-2-{4-[2-(1-pyrrolidinyl)ethoxy]phenyl}acetamide] registered a melting point of 70 °C.
Regarding `CC#CCOc1ccc(S(=O)(=O)N2CCSC3(CCN(Cc4ccccc4)CC3)C2C(=O)NO)cc1` (stereo not shown) (as salt: hydrochloride) [Example 241, 9-Benzyl-4-{[4-(2-butynyloxy)phenyl]sulfonyl}-N-hydroxy-1-thia-4,9-diazaspiro[5.5]undecane-5-carboxamide], the melting point was in the range of 151 to 153 °C.
`CC#CCOc1ccc(S(=O)(=O)NC(C(=O)NO)C(C)(C)SCC(=O)O)cc1` (stereo not shown) (as salt: sodium) [Example 166, tert-Butyl {[2-({[4-2-Butynyloxy)phenyl]sulfonyl}amino)-3-(hydroxyamino)-1,1-dimethyl-3-oxopropyl]sulfanyl Acetic Acid, Sodium Salt]: the melting point is 75 °C (dec.).
`CC#CCOc1ccc(S(=O)(=O)N(C)[C@@H](C(=O)NO)[C@H]2CC[C@H](O)CC2)cc1` [Example 130] showed a melting point of 195 to 197 °C. Further, the IC50 in data set [1] worked out at 15 nM. In data set [2] (read-out: TACE IC50), the IC50 was found to be 23 nM. The IC50 in data set [3] was found to be 30 nM. Further, the IC50 in data set [4] was 169 nM.
In turn, `CC#CCOc1ccc(S(=O)(=O)N(C)C2(C(=O)NO)CCCCC2)cc1` [Example 136, 1-[{[4-(2-Butynyloxy)phenyl]sulfonyl}(methyl)amino]-N-hydroxycyclohexanecarboxamide] yielded a melting point of 89 to 92 °C. Moreover, in data set [1], the IC50 amounted to 1630 nM. Also, the IC50 in data set [2] (read-out: TACE IC50) was determined as 574 nM. Also, the IC50 in data set [3] turned out to be 3750 nM. Moreover, the IC50 in data set [4] came to 682 nM.
In turn, `CC#CCOc1ccc(S(=O)(=O)N(Cc2cccnc2)C2(C(=O)NO)CCCCC2)cc1` [Example 137, 1-[{[4-(2-Butynyloxy)phenyl]sulfonyl}(3-pyridinylmethyl)amino]N-hydroxycyclohexanecarboxamide] registered a melting point of 179 to 181 °C. In addition, the IC50 in data set [1] is 48 nM. Also, the IC50 in data set [2] (read-out: TACE IC50) was 191 nM. In data set [3], the IC50 stood at 79 nM. For the same compound, in data set [4], the IC50 worked out at 482 nM.
In turn, `CC#CCOc1ccc(S(=O)(=O)N(C)C(C(=O)NO)C(C)(C)SCCN2CCN(C)CC2)cc1` (stereo not shown) [Example 141] gave a melting point of 110 to 115 °C. Besides, the half-maximal inhibitory concentration (IC50) in data set [1] was determined as 7.6 nM. Besides, in data set [2] (read-out: TACE IC50), the IC50 worked out at 101 nM. In data set [3], the concentration for half-maximal inhibition (IC50) came to 8.3 nM. Moreover, the IC50 in data set [4] amounted to 17 nM.
The compound `CC#CCOc1ccc(S(=O)(=O)N(C)C(C(=O)NO)C(C)(C)SCCN2CCCC2)cc1` (stereo not shown) [Example 143, 2-({[4-(2-Butynyloxy)phenyl]sulfonyl)(methyl)amino]-N-hydroxy-3 Methyl-3-{[2(1-pyrrolidinyl)ethyl]sulfanyl}butanamide] came in with a melting point of 55 to 57 °C.
For `CC#CCOc1ccc(S(=O)(=O)N(C)C(C(=O)NO)C(C)(C)SCC(C)N(CC)CC)cc1` (stereo not shown) [Example 148, 2-({[4-(2-Butynyloxy)phenyl]sulfonyl)(methyl)amino]-N-hydroxy-3 Methyl-3-{[2-(diethylamino)propyl]sulfanyl}butanamide], the melting point lay within 65 to 68 °C.
`CC#CCOc1ccc(S(=O)(=O)N(C)C(C(=O)NO)c2ccc(OCCCNC(=O)OCC)cc2)cc1` (stereo not shown) [Example 193, Ethyl 3-{4-[1-[{[4-(2-Butynyloxy)phenyl]sulfonyl}(methyl)amino]-2-(hydroxyamino)-2-oxoethyl]phenoxy}propylcarbamate] had a melting point of 60 to 62 °C. The IC50 in data set [1] was determined as 29.3 nM. Moreover, in data set [2] (read-out: TACE IC50), the IC50 was 61 nM. In addition, the IC50 in data set [4] is about 1000 nM.
In the case of `CC#CCOc1ccc(S(=O)(=O)N(C)C(C(=O)NO)c2ccc(OCCCNC(C)=O)cc2)cc1` (stereo not shown) [Example 194], the melting point is 88 °C (dec.). Moreover, the IC50 in data set [1] came out at 15 nM. Further, in data set [2] (read-out: TACE IC50), the half-maximal inhibitory concentration (IC50) was 61 nM. The IC50 in data set [4] is 592 nM.
In turn, `CC#CCOc1ccc(S(=O)(=O)N(C)C(C(=O)NO)c2ccc(OCCCNC(=O)OCCCC)cc2)cc1` (stereo not shown) [Example 195, Butyl 3-{4-[1-[{[4-(2-Butynyloxy)phenyl]sulfonyl}(methyl)amino]-2-(hydroxyamino)-2-oxoethyl]phenoxy}propylcarbamate] displayed a melting point of 50 to 55 °C. For the same compound, the IC50 in data set [1] came to 28 nM. Also, the IC50 in data set [2] (read-out: TACE IC50) came out at 122 nM. The IC50 in data set [4] is over 1000 nM.
`CC#CCOc1ccc(S(=O)(=O)N(C)C(C(=O)NO)c2ccc(OCCCNC(=O)OCc3ccccc3)cc2)cc1` (stereo not shown) [Example 196, Benzyl 3-{4-[1-[{[4-(2-Butynyloxy)phenyl]sulfonyl}(methyl)amino]-2-(hydroxyamino)-2-oxoethyl]phenoxy}propylcarbamate] registered a melting point of 48 to 50 °C. The IC50 in data set [1] is 31 nM. Moreover, the IC50 in data set [2] (read-out: TACE IC50) was determined as 109 nM.
In turn, `CC#CCOc1ccc(S(=O)(=O)N(C)C(C(=O)NO)c2ccc(OCCCNS(C)(=O)=O)cc2)cc1` (stereo not shown) [Example 197, 2-[{[4-(2-Butynyloxy)phenyl]sulfonyl}(methyl)amino]-N-hydroxy-2-(4-{3-[(methylsulfonyl)amino]propoxy}phenyl)acetamide] returned a melting point of 65 to 70 °C. Also, the half-inhibitory concentration (IC50) in data set [1] was 24 nM. In addition, in data set [2] (read-out: TACE IC50), the IC50 amounted to 25 nM. Also, in data set [4], the IC50 was 569 nM.
Consider `CC#CCOc1ccc(S(=O)(=O)N(C)C(C(=O)NO)c2ccc(OCCCNC(=O)Nc3ccccc3)cc2)cc1` (stereo not shown) [Example 198, 2-(4-{3-[(Anilinocarbonyl)amino]propoxy}phenyl)-2-[{[4-(2-butynyloxy)phenyl]sulfonyl}(methyl)amino]-N-hydroxyacetamide], for which the melting point was 135 °C (dec.). In addition, the IC50 in data set [1] was 11 nM. In addition, the IC50 in data set [2] (read-out: TACE IC50) was 62 nM. The IC50 in data set [4] came out at 834 nM.
For `CC#CCOc1ccc(S(=O)(=O)NC(C(=O)NO)c2ccc(OCCN3CCN(C(=O)OC(C)(C)C)CC3)cc2)cc1` (stereo not shown) [Example 202, tert-Butyl 4-(2-{4-[1-({[4-(2-Butynyloxy)phenyl]sulfonyl}amino)-2-(hydroxyamino)-2-oxoethyl)phenoxy]ethyl)-1-piperazinecarboxylate] the same measures were 92 to 95 °C, 345 nM, 113 nM and over 10000 nM.
The compound `CC#CCOc1ccc(S(=O)(=O)NC(C(=O)NO)c2ccc(OCCN3CCOCC3)cc2)cc1` (stereo not shown) [Example 206, 2-({[4-(2-Butynyloxy)phenyl]sulfonyl}amino)-N-hydroxy-2-{4-[2-(4-morpholinyl)ethoxy]phenyl}acetamide] showed a melting point of 80 to 86 °C. In addition, the IC50 in data set [1] was found to be 147 nM. In addition, the IC50 in data set [2] (read-out: TACE IC50) stood at 33 nM. Also, the IC50 in data set [4] is over 10000 nM.
`CC#CCOc1ccc(S(=O)(=O)N(C)C(C(=O)NO)c2ccc(Cl)cc2)cc1` (stereo not shown) [Example 212, 2-[{[4-(2-Butynyloxy)phenyl]sulfonyl}(methyl)amino]-2-(4-chlorophenyl)-N-hydroxyacetamide] registered a melting point of 170 to 172 °C. Besides, in data set [1], the IC50 came to 36 nM. For the same compound, the IC50 in data set [2] (read-out: TACE IC50) was 62 nM. The IC50 in data set [4] was found to be 798 nM.
Take `CC#CCOc1ccc(S(=O)(=O)N(C)C(CCCSc2ccc(Cl)cc2)C(=O)NO)cc1` (stereo not shown) [Example 213, 2-[{[4-(2-Butynyloxy)phenyl]sulfonyl}(methyl)amino]-5[(4-chlorophenyl)sulfanyl]-N-hydroxypentanamide]: the melting point lay within 144 to 145.5 °C. In addition, in data set [1], the IC50 was found to be 9 nM. Further, the IC50 in data set [2] (read-out: TACE IC50) was 210 nM. Further, the half-maximal inhibitory concentration (IC50) in data set [4] worked out at 453 nM.
`CC#CCOc1ccc(S(=O)(=O)N2CCSC3(CCCC3)C2C(=O)NO)cc1` (stereo not shown) [Example 236] returned a melting point of 206 to 208 °C. In data set [1] (Table 9), the IC50 stood at 11 nM. In addition, the IC50 in data set [2] (Table 9, read-out: TACE IC50) came out at 43 nM. Further, the IC50 in data set [4] (Table 9) is 24 nM.
The compound `CC#CCOc1ccc(S(=O)(=O)N2CCSCC2C(=O)NO)cc1` (stereo not shown) [Example 239] came in with a melting point of 150 to 154 °C. In addition, the IC50 in data set [1] (Table 9) is 12 nM. Also, the IC50 in data set [2] (Table 9, read-out: TACE IC50) stood at 2.9 nM. Also, the half-inhibitory concentration (IC50) in data set [3] (Table 9) came to 21 nM.
`CC#CCOc1ccc(S(=O)(=O)N2CCOCC2C(=O)NO)cc1` (stereo not shown) [Example 240, 4-([4-(2-Butynyloxy)phenyl]sulfonyl}-N-hydroxy-3-morpholinecarboxamide]: the melting point was 68 to 72 °C. Also, in data set [1] (Table 9), the IC50 was 26 nM. Half-maximal inhibition in data set [2] (TACE IC50) (IC50) was put at 4.5 nM. The IC50 in data set [3] (Table 9) was determined as 170 nM.
`CC#CCOc1ccc(S(=O)(=O)N2CCSC3(CCN(C)CC3)C2C(=O)NO)cc1` (stereo not shown) [Example 242, 9-Methyl-4-{[4-(2-butynyloxy)phenyl]sulfonyl}-N-hydroxy-1-thia-4,9-diazaspiro[5.5]undecane-5-carboxamide] came in with a melting point of 195 to 198 °C. Moreover, the IC50 in data set [2] (Table 9, read-out: TACE IC50) was 869 nM.
`CC#CCOc1ccc(S(=O)(=O)N2CCSCCC2C(=O)NO)cc1` (stereo not shown) [Example 294, 4-{[4-(2-Butynyloxy)phenyl]sulfonyl}-N-hydroxy-1,4-thiazepine-5-carboxamide]: the melting point lay in the range of 95 to 98 °C.
